Reference: patent US10640507B2, “PBD antibacterial agents” (KING'S COLLEGE LONDON, priority 2015, dated 2020)
Values after ≈ are worked out from the molar mass of the structure shown. Where two headings read alike, the source gives them in different places.

What was measured:
Type in all cases: cell-based
EMRSA-16 = test: General MIC protocol, Gram positive panel
Method: (§1) General Minimum Inhibitory Concentration (MIC) Protocol
(§2) 1. Grow up cultures of bacterial strains to be tested overnight.
(§3) 2. Dilute down overnight cultures to concentration of 1×10^6 bacteria/ml (OD0.01) in Tryptic soy broth (TSB).
(§4) 3. Add 100 μl of TSB media to column 2-column 12 in 96 well plate (keeping column 1 clear).
(§5) 4. Make up compound to a concentration of 64 μg/ml in water (or alternatively to twice the chosen maximum concentration to be tested).
(§6) 5. Add 100 μl of antibiotic solution to the 1st and 2nd columns.
(§7) 6. Using a multichannel pipette take 100 μl from the 2nd column wells and pipette into 3rd column wells and repeat down the 96 well plate (remembering to include controls i.e. uninfected media and media with no antibiotic).
(§8) 7. To each well (except uninfected control row H) add 100 μl of bacterially infected media at a concentration of 1×10^6/ml.
(§9) 8. This dilutes down the concentration of the antibiotic by half (top dose is therefore 32 μg/ml in column 1) and also gives you a starting bacterial concentration of 5×10^5/ml.
(§10) 9. Wrap plate with parafilm to prevent evaporation.
(§11) 10. Leave at desired temperature (37° C. unless specified elsewhere) for 20 hours.
(§12) 11. Next day check plates for growth and measure optical density (i.e. absorbance) at a wavelength of 600 nm (OD600).
(§13) An example of such a plate is shown in FIG. 1 where column A represents wells that receive the top dose 100 μl; column B represents wells that receive the top dose 100 μl+100 μl TSB; and column C represents wells that receive 100 μl TSB. Row H which is marked by a box labelled D represents a blank where the cells receive no bacteria.

EMRSA-15 = test: General MIC protocol, Gram positive panel
Method: as §1, §2, §3, §4, §5, §6, §7, §8, §9, §10, §11, §12, §13

E. faecalis VSE NCTC 775 = test: General MIC protocol, Gram positive panel; conditions: Enterococcus faecalis, NCTC775; VSE 775
Method: as §1, §2, §3, §4, §5, §6, §7, §8, §9, §10, §11, §12, §13

[1] = tested on: methicillin sensitive S. aureus ATTC 9144 (NCTC 6571); test: General MIC protocol, Gram positive panel; conditions: Staphylococcus aureus, MSSA / NCTC 6571; MSSA 9144
Method: as §1, §2, §3, §4, §5, §6, §7, §8, §9, §10, §11, §12, §13

[2] = tested on: E. faecium VRE NCTC 12204; test: General MIC protocol, Gram positive panel
Method: as §1, §2, §3, §4, §5, §6, §7, §8, §9, §10, §11, §12, §13

[3] = tested on: E. faecalis VRE NCTC 12201; test: General MIC protocol, Gram positive panel
Method: as §1, §2, §3, §4, §5, §6, §7, §8, §9, §10, §11, §12, §13

[4] = tested on: HeLa (Cervical cancer cell line); test: MTT cytotoxicity assay; conditions: Homo sapiens, read-out: IC50 HeLa (Cervical cancer cell line)
Method: (§14) Two immortalised human cell lines, HeLa and WI38 were used for cytotoxicity screening of the compounds. HeLa is a human cervical cancer cell line and WI38 is a normal healthy cell line. The cell lines were obtained from the American Type Culture Collection. The cell-lines were maintained in monolayer culture in 75 cm2 flasks (TPP, Switzerland) under a humidified 5% CO2 atmosphere at 37° C. The HeLa cell line was maintained in Dulbecco's Modified Eagles Media (DMEM; Invitrogen) supplemented with foetal bovine serum (10% v/v; Invitrogen), L-glutamine (2 mM; Invitrogen), non-essential amino acids (1×; Invitrogen) and Penicillin-Streptomycin (1% v/v, Invitrogen). For WI38, Eagle's Minimum Essential Medium, and Penicillin-Streptomycin (1% v/v, Invitrogen) and foetal bovine serum (10%, nvitrogen) was used. For passaging, cells were washed with phosphate buffered saline [PBS] (GIBCO 14040, Invitrogen, UK), incubated with trypsine (GIBCO 25300, Invitrogen, UK), and re-seeded into fresh medium. For seeding, cells were counted using a Neubauer haemocytometer (Assistant, Germany) by microscopy (Nikon, USA) on a non-adherent suspension of cells that were washed in PBS, trypsinised, centrifuged at 8° C. at 8000 rpm for 5 min and re-suspended in fresh medium.
(§15) The cells were grown in normal cell culture conditions at 37° C. under a 5% CO2 humidified atmosphere using appropriate medium. The cell count was adjusted to 10^5 cells/ml/ and 20,000 cells were added per well. The cells were incubated for 24 hours and 1 μl of the appropriate inhibitor concentrations were to the wells in triplicates. After 24 h of continuous exposure to each compound, the cytotoxicity was determined using the MIT (3-(4,5-Dimethylthiazol-2-yl)-2,5-diphenyltetrazolium bromide) (Lancaster Synthesis Ltd, UK) colorimetric assay. Absorbance was quantified by spectrophotometry at λ=570 nm (Envision Plate Reader, PerkinElmer, USA). IC50 values were calculated by a dose-response analysis using the Prism Graphpad Prism® software. The cytotoxicity results are shown below in Table 12.

WI38 (Healthy cell line) = test: MTT cytotoxicity assay; conditions: Homo sapiens, read-out: IC50 WI38 (Healthy cell line)
Method: as §14, §15

K. pneumonia M6 = test: General MIC protocol, Gram negative; conditions: Klebsiella pneumoniae; KP-M6
Method: as §1, §2, §3, §4, §5, §6, §7, §8, §9, §10, §11, §12, §13

P. aeruginosa PA01 = test: General MIC protocol, Gram negative; conditions: Pseudomonas aeruginosa, PA01, PA01
Method: as §1, §2, §3, §4, §5, §6, §7, §8, §9, §10, §11, §12, §13

P. aeruginosa NCTC 13437 = test: General MIC protocol, Gram negative; conditions: Pseudomonas aeruginosa, NCTC13437
Method: as §1, §2, §3, §4, §5, §6, §7, §8, §9, §10, §11, §12, §13

A. baumannii NCTC 17978 = test: General MIC protocol, Gram negative; conditions: Acinetobacter baumannii, NCTC17978
Method: as §1, §2, §3, §4, §5, §6, §7, §8, §9, §10, §11, §12, §13

A. baumannii AYE = test: General MIC protocol, Gram negative; conditions: Acinetobacter baumannii
Method: as §1, §2, §3, §4, §5, §6, §7, §8, §9, §10, §11, §12, §13

K. pneumonia NCTC 13368 = test: General MIC protocol, Gram negative; conditions: Klebsiella pneumoniae, NCTC13368
Method: as §1, §2, §3, §4, §5, §6, §7, §8, §9, §10, §11, §12, §13

[5] = WI-38, MTT, 24 h continuous exposure, highest concentration tested 20 μM

Row | SMILES | MIC (EMRSA-16) [µg/mL] | MIC (EMRSA-15) [µg/mL] | MIC (E. faecalis VSE NCTC 775) [µg/mL] | MIC [1] [µg/mL] | MIC [2] [µg/mL] | MIC [3] [µg/mL] | IC50 ([4]; 24 h) [µM] | IC50 (WI38 (Healthy cell line); WI-38, 24 h) [µM] | MIC (K. pneumonia M6) [µg/mL] | MIC (P. aeruginosa PA01) [µg/mL] | MIC (P. aeruginosa NCTC 13437) [µg/mL] | MIC (A. baumannii NCTC 17978) [µg/mL] | MIC (A. baumannii AYE) [µg/mL] | MIC (K. pneumonia NCTC 13368) [µg/mL] | IC50 ([4]; MTT, 24 h continuous exposure) [µM] | IC50 (WI38 (Healthy cell line); [5]) [µM]
1 | COc1cc2c(cc1OCCCC(=O)Nc1cc(C(=O)Nc3ccc4oc(C(=O)N5CCOCC5)cc4c3)n(C)c1)N=C[C@@H]1CCCN1C2=O [PP-A147, (S)-4-(4-((7-methoxy-5-oxo-2,3,5,11a-tetrahydro-1H-benzo[e]pyrrolo[1,2-a][1,4]diazepin-8-yl)oxy)butanamido)-1-methyl-N-(2-(morpholine-4-carbonyl)benzofuran-5-yl)-1H-pyrrole-2-carboxamide] | 0.25 (≈ 0.366 µM) | < 0.125 | < 0.125 | < 0.125 | < 0.125 | < 0.125 | > 20 | > 20 | 0.5 to 1 (≈ 0.732 to 1.46 µM) | > 128 | 64 (≈ 93.7 µM) | 8 (≈ 11.7 µM) | 8 (≈ 11.7 µM) | 32 to 64 (≈ 46.9 to 93.7 µM) | – | –
2 | COc1cc2c(cc1OCCCC(=O)Nc1cc(C(=O)Nc3ccc4oc(C(=O)N(C)C)cc4c3)n(C)c1)N=C[C@@H]1CCCN1C2=O [PP-A159, (S)—N-(2-(dimethylcarbamoyl)benzofuran-5-yl)-4-(4-((7-methoxy-5-oxo-2,3,5,11a-tetrahydro-1H-benzo[e]pyrrolo[1,2-a][1,4]-diazepin-8-yl)oxy)butanamido)-1-methyl-1H-pyrrole-2-carboxamide] | < 0.125 | < 0.125 | < 0.125 | < 0.125 | < 0.125 | 0.5 (≈ 0.78 µM) | – | – | 0.5 (≈ 0.78 µM) | 128 (≈ 200 µM) | 32 to 64 (≈ 49.9 to 99.9 µM) | 4 (≈ 6.24 µM) | 4 (≈ 6.24 µM) | 16 (≈ 25 µM) | 18.5 | > 20
3 | CCOC(=O)c1nc(NC(=O)c2cc3cc(NC(=O)c4cc(NC(=O)CCCOc5cc6c(cc5OC)C(=O)N5CCC[C@H]5C=N6)cn4C)ccc3s2)cn1C [PP-B14, reference compound] | 1 (≈ 1.28 µM) | 0.5 (≈ 0.64 µM) | < 0.125 | < 0.125 | < 0.125 | < 0.125 | – | – | 128 (≈ 164 µM) | > 128 | 128 (≈ 164 µM) | 64 (≈ 82 µM) | 64 (≈ 82 µM) | 128 (≈ 164 µM) | – | –
4 | COc1cc2c(cc1OCCCC(=O)Nc1cc(C(=O)Nc3ccc4sc(C(=O)N5CCSCC5)cc4c3)n(C)c1)N=C[C@@H]1CCCN1C2=O [PP-B15, (S)-4-(4-((7-methoxy-5-oxo-2,3,5,11a-tetrahydro-1H-benzo-[e]pyrrolo[1,2-a][1,4]diazepin-8-yl)oxy)butanamido)-1-methyl-N-(2-(thiomorpholine-4-carbonyl)benzo[b]thiophen-5-yl)-1H-pyrrole-2-carboxamide] | < 0.125 | < 0.125 | < 0.125 | < 0.125 | < 0.125 | < 0.125 | – | – | > 128 | 64 (≈ 89.5 µM) | 32 (≈ 44.8 µM) | 2 (≈ 2.8 µM) | 2 (≈ 2.8 µM) | 2 (≈ 2.8 µM) | > 20 | > 20
5 | COc1cc2c(cc1OCCCC(=O)Nc1cc(C(=O)Nc3ccc4sc(C(=O)N5CCOCC5)cc4c3)n(C)c1)N=C[C@@H]1CCCN1C2=O [PP-B16, (S)-4-(4-((7-methoxy-5-oxo-2,3,5,11a-tetrahydro-1H-benzo[e]pyrrolo[1,2-a][1,4]diazepin-8-yl)oxy)butanamido)-1-methyl-N-(2-(morpholine-4-carbonyl)benzo[b]thiophen-5-yl)-1H-pyrrole-2-carboxamide] | 0.5 (≈ 0.716 µM) | < 0.125 | < 0.125 | < 0.125 | < 0.125 | < 0.125 | – | – | 64 (≈ 91.6 µM) | 64 (≈ 91.6 µM) | 32 (≈ 45.8 µM) | 8 (≈ 11.4 µM) | 8 (≈ 11.4 µM) | 8 (≈ 11.4 µM) | > 20 | > 20
6 | COC(=O)c1cc(NC(=O)c2cc3cc(NC(=O)c4cc(NC(=O)CCCOc5cc6c(cc5OC)C(=O)N5CCC[C@H]5C=N6)cn4C)ccc3s2)cn1C [PP-B17, reference compound] | 0.25 (≈ 0.326 µM) | < 0.125 | < 0.125 | < 0.125 | < 0.125 | < 0.125 | – | – | 128 (≈ 167 µM) | 128 (≈ 167 µM) | 64 (≈ 83.6 µM) | 8 (≈ 10.4 µM) | 32 (≈ 41.8 µM) | 128 (≈ 167 µM) | – | –
7 | COc1cc2c(cc1OCCCC(=O)Nc1cc(C(=O)Nc3ccc4sc(C(=O)N5CCCCC5)cc4c3)n(C)c1)N=C[C@@H]1CCCN1C2=O [PP-B22, (S)-4-(4-((7-methoxy-5-oxo-2,3,5,11a-tetrahydro-1H-benzo-[e]pyrrolo[1,2-a][1,4]diazepin-8-yl)oxy)butanamido)-1-methyl-N-(2-(piperidine-1-carbonyl)benzo[b]thiophen-5-yl)-1H-pyrrole-2-carboxamide] | 1 (≈ 1.44 µM) | 0.5 (≈ 0.718 µM) | 0.25 (≈ 0.359 µM) | < 0.125 | < 0.125 | < 0.125 | – | – | 128 (≈ 184 µM) | 128 (≈ 184 µM) | 64 (≈ 91.8 µM) | 8 (≈ 11.5 µM) | 8 (≈ 11.5 µM) | 128 (≈ 184 µM) | > 20 | > 20
